Assay [1] has as its target T1, 11β-HSD1 (Homo sapiens, UniProt P28845). The assay can be described thus: biochemical. The note with it: for inhibition at 0.1 µM: read-out: Average % inhibition at 100 nM.
Assay [2] deals with T1, 11β-HSD1. The assay can be described thus: Biological Test Example 4: microsomal 11β-HSD1 in the presence of 50% human plasma. To be noted: for Shift: IC50 in Test Example 4 divided by IC50 in Test Example 1.
Assay [3] concerns the target T2, CYP2C9 (Homo sapiens, UniProt P11712).
T2 construct: purchased Invitrogen 2859; host or cells: insect cells infected with baculovirus (microsomes)
The assay can be described thus: Biological Test Example 9: CYP2C9 inhibition (Invitrogen kit, fluorogenic OOMR). The assay is classed as in vitro ADME.

The target in assay [4] is CYP3A4 (Homo sapiens, UniProt P08684). The assay can be described thus: Biological Test Example 6: CYP3A4 inhibition (erythromycin N-demethylation). The assay is classed as in vitro ADME.
Sequence of CYP3A4 (P08684 whole entry): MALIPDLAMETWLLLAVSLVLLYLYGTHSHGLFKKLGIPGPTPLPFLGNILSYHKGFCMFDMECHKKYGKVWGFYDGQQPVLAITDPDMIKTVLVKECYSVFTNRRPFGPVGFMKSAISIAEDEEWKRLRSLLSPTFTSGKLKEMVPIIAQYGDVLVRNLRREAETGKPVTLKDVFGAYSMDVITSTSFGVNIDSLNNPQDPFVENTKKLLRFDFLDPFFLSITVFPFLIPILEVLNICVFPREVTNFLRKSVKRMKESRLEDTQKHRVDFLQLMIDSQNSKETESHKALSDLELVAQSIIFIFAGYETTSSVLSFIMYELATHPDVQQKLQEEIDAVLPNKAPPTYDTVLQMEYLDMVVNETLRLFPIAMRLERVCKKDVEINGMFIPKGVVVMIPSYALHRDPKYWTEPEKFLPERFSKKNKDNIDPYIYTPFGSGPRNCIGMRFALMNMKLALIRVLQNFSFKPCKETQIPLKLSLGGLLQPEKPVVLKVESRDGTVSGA
The target in assay [5] is T2, CYP2C9. The assay can be described thus: Biological Test Example 7: CYP2C9 inhibition (naproxen O-demethylation). The assay is classed as in vitro ADME.
Setting [6] is: Biological Test Example 1 IC50 (nM).
Setting [7] is: IC50 Range, Biological Test Example 1.

T2 sequence (P11712 whole entry): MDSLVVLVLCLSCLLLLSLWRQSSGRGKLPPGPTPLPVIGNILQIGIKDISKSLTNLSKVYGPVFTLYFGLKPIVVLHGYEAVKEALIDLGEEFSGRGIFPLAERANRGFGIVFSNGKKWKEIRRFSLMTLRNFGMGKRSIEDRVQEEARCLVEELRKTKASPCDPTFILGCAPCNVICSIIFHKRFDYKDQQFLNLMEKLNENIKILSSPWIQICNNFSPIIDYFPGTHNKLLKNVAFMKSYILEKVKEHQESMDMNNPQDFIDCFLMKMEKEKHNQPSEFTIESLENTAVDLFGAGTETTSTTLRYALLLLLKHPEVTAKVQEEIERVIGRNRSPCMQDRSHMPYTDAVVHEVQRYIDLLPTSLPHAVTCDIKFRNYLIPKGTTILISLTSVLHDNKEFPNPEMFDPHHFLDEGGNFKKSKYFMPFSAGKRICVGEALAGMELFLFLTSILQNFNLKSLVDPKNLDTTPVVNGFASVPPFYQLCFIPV
T1 sequence (P28845 whole entry): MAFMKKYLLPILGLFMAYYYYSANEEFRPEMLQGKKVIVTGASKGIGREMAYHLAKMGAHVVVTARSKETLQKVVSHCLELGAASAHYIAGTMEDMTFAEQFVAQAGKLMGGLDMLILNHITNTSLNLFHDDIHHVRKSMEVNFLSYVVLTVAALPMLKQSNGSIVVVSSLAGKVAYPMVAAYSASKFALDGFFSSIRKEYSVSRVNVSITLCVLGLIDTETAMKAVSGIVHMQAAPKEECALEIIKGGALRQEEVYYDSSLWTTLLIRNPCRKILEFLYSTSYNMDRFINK

Broadly, the IC50 is the concentration needed to halve the response being measured. As usually defined, the inhibition is the relative decrease from the control value, in per cent. For the molecule `Cc1cc(-c2ccc([C@H](C)N3CC[C@@](C)(c4ccc(F)cc4)OC3=O)cc2)ccn1` (single isomer, unassigned) [EXAMPLE 107.1], the half-maximal inhibitory concentration (IC50) was 3.2 nM in assay [1] (setting [6]), < 100 nM in assay [1] (setting [7]), 86.4 nM in assay [2] and 2700 nM in assay [3]. The inhibition at 0.1 µM in assay [1] was found to be 95.5%. Further, the Shift in assay [2] was 26.9.
Turning to `Cc1cc(-c2ccc([C@H](C)N3CC[C@](C)(c4ccc(F)cc4)OC3=O)cc2)ccn1` (single isomer, unassigned) [EXAMPLE 107.2], the IC50 is 3.2 nM in assay [1] (setting [6]), < 100 nM in assay [1] (setting [7]), 269 nM in assay [2] and 17500 nM in assay [3]. In addition, the inhibition at 0.1 µM in assay [1] was found to be 93.6%. Further, the Shift in assay [2] is recorded as 83.8.
With `Cc1nc(-c2ccc([C@H](C)N3CC[C@](CC(C)(C)O)(c4ccccc4)OC3=O)cc2)ccc1C#N` [EXAMPLE 1, 6-(4-((S)-1-((S)-6-(2-hydroxy-2-methylpropyl)-2-oxo-6-phenyl-1,3-oxazinan-3-yl)ethyl)phenyl)-2-methylnicotinonitrile], the IC50 in assay [1] (setting [6]) is 0.7 nM; in assay [1] (setting [7]) it was < 100 nM; in assay [2], 7.3 nM; in assay [4] it was 16700 nM; in assay [5] it was 12900 nM. Also, the inhibition at 0.1 µM in assay [1] worked out at 96.4%.
Regarding `C[C@@H](c1ccc(-c2ccc(C(C)(C)O)nn2)cc1)N1CC[C@](CC(C)(C)O)(c2ccccc2)OC1=O` [EXAMPLE 7, (S)-6-(2-hydroxy-2-methylpropyl)-3-((S)-1-(4-(6-(2-hydroxypropan-2-yl)pyridazin-3-yl)phenyl)ethyl)-6-phenyl-1,3-oxazinan-2-one], the IC50 is 4.9 nM in assay [1] (setting [6]), < 100 nM in assay [1] (setting [7]), 4.3 nM in assay [2] and 5300 nM in assay [3]. Besides, the inhibition at 0.1 µM in assay [1] is 93.3%. The Shift in assay [2] came out at 0.9.
In turn, `Cc1ccc(-c2ccc([C@H](C)N3CC[C@](CCc4nnc(C)o4)(c4ccccc4)OC3=O)cc2)nn1` [EXAMPLE 12, (R)-6-(2-(5-methyl-1,3,4-oxadiazol-2-yl)ethyl)-3-((S)-1-(4-(6-methylpyridazin-3-yl)phenyl)ethyl)-6-phenyl-1,3-oxazinan-2-one] displayed an IC50 in assay [3] of 4000 nM.
Regarding `C[C@@H](c1ccc(-c2cnc(-n3ccnc3)nc2)cc1)N1CC[C@](CC(C)(C)O)(c2ccccc2)OC1=O` [EXAMPLE 14, (S)-3-((S)-1-(4-(2-(1H-imidazol-1-yl)pyrimidin-5-yl)phenyl)ethyl)-6-(2-hydroxy-2-methylpropyl)-6-phenyl-1,3-oxazinan-2-one], the IC50 in assay [1] (setting [6]) is 0.9 nM; in assay [1] (setting [7]), < 100 nM; in assay [2], 4.5 nM; in assay [3], 20100 nM. In addition, in assay [1], the inhibition at 0.1 µM was found to be 93.4%. In assay [2], the Shift is 5.0.
As to `C[C@@H](c1ccc(-c2cccnc2)cc1)N1CC[C@](CCO)(c2ccccc2)OC1=O` [EXAMPLE 34, (S)-6-(2-hydroxyethyl)-6-phenyl-3-((S)-1-(4-(pyridin-3-yl)phenyl)ethyl)-1,3-oxazinan-2-one], in assay [3], half-maximal inhibition (IC50) required 5100 nM.
In turn, `C[C@@H](c1ccc(-c2ccncc2)cc1)N1CC[C@](CCCO)(c2ccccc2)OC1=O` [EXAMPLE 35, (R)-6-(3-hydroxypropyl)-6-phenyl-3-((S)-1-(4-(pyridin-4-yl)phenyl)ethyl)-1,3-oxazinan-2-one] came in with a concentration for half-maximal inhibition (IC50) in assay [3] of 2200 nM.
The same measure, in the same setting: next, `C[C@@H](c1ccc(-c2cccnc2)cc1)N1CC[C@](CCCO)(c2ccccc2)OC1=O` [EXAMPLE 36, (R)-6-(3-hydroxypropyl)-6-phenyl-3-((S)-1-(4-(pyridin-3-yl)phenyl)ethyl)-1,3-oxazinan-2-one]: 5200 nM.
As to `C[C@@H](c1ccc(-c2cccnc2)cc1)N1CC[C@](CCO)(c2ccc(F)cc2)OC1=O` [EXAMPLE 37, (S)-6-(4-fluorophenyl)-6-(2-hydroxyethyl)-3-((S)-1-(4-(pyridin-3-yl)phenyl)ethyl)-1,3-oxazinan-2-one], the IC50 in assay [1] (setting [6]) is 2.5 nM; in assay [1] (setting [7]), < 100 nM; in assay [2] it was 6.1 nM; in assay [3], 8500 nM. Besides, in assay [1], the inhibition at 0.1 µM amounted to 94.3%. Moreover, the Shift in assay [2] came to 2.5.
In the case of `C[C@@H](c1ccc(-c2ccc[n+]([O-])c2)cc1)N1CC[C@](CCCO)(c2ccccc2)OC1=O` [EXAMPLE 38, 3-(4-((S)-1-((R)-6-(3-hydroxypropyl)-2-oxo-6-phenyl-1,3-oxazinan-3-yl)ethyl)phenyl)pyridine 1-oxide], the 50% inhibitory concentration (IC50) in assay [3] is > 30000 nM.
In assay [3], `COc1ccc(-c2ccc([C@H](C)N3CC[C@](CCCO)(c4ccccc4)OC3=O)cc2)cn1` [EXAMPLE 40, (R)-6-(3-hydroxypropyl)-3-((S)-1-(4-(6-methoxypyridin-3-yl)phenyl)ethyl)-6-phenyl-1,3-oxazinan-2-one] registered an IC50 of 10000 nM.
On to `C[C@@H](c1ccc(-c2ccc(C(F)(F)F)nc2)cc1)N1CC[C@](CCCO)(c2ccc(F)cc2)OC1=O` [EXAMPLE 44, (R)-6-(4-fluorophenyl)-6-(3-hydroxypropyl)-3-((S)-1-(4-(6-(trifluoromethyl)pyridin-3-yl)phenyl)ethyl)-1,3-oxazinan-2-one], for which the half-inhibitory concentration (IC50) in assay [1] (setting [6]) is 0.7 nM; in assay [1] (setting [7]), < 100 nM; in assay [2], 4.2 nM; in assay [3] it was 1400 nM. Also, the inhibition at 0.1 µM in assay [1] came out at 100%.
With `C[C@@H](c1ccc(-c2cc[nH]n2)cc1)N1CC[C@](CCCO)(c2ccccc2)OC1=O` [EXAMPLE 45, (R)-3-((S)-1-(4-(1H-pyrazol-3-yl)phenyl)ethyl)-6-(3-hydroxypropyl)-6-phenyl-1,3-oxazinan-2-one], the IC50 in assay [1] (setting [6]) is 3 nM; in assay [1] (setting [7]), < 100 nM; in assay [2], 13.5 nM; in assay [3], 9000 nM. Besides, in assay [1], the inhibition at 0.1 µM worked out at 96.7%.
In the case of `C[C@@H](c1ccc(-c2cncc(F)c2)cc1)N1CC[C@](CCCO)(c2ccccc2)OC1=O` [EXAMPLE 49, (R)-3-((S)-1-(4-(5-fluoropyridin-3-yl)phenyl)ethyl)-6-(3-hydroxypropyl)-6-phenyl-1,3-oxazinan-2-one], the IC50 in assay [3] came to 8400 nM.
As to `C[C@@H](c1ccc(-c2cccnc2)cc1)N1CC[C@](CCNS(C)(=O)=O)(c2ccccc2)OC1=O` [EXAMPLE 55, N-(2-((S)-2-oxo-6-phenyl-3-((S)-1-(4-(pyridin-3-yl)phenyl)ethyl)-1,3-oxazinan-6-yl)ethyl)methanesulfonamide], in assay [1], the inhibition at 0.1 µM came to 96.5%. Further, the IC50 in assay [3] was found to be 14100 nM.
For `C[C@@H](c1ccc(-c2ccc(N)nc2)cc1)N1CC[C@](CCCO)(c2ccccc2)OC1=O` [EXAMPLE 95, (R)-3-((S)-1-(4-(6-aminopyridin-3-yl)phenyl)ethyl)-6-(3-hydroxypropyl)-6-phenyl-1,3-oxazinan-2-one], 2400 nM corresponded to half-maximal inhibition in assay [3] (IC50).
For `Cc1cc(-c2ccc([C@H](C)N3CC[C@](CCN4CCCS4(=O)=O)(c4ccccc4)OC3=O)cc2)ccn1` [EXAMPLE 105, (S)-6-(2-(1,1-dioxo-isothiazolidin-2-yl)ethyl)-3-((S)-1-(4-(2-methylpyridin-4-yl)phenyl)ethyl)-6-phenyl-1,3-oxazinan-2-one], the IC50 was 19.2 nM in assay [1] (setting [6]), < 100 nM in assay [1] (setting [7]) and 2500 nM in assay [3]. The inhibition at 0.1 µM in assay [1] worked out at 86.3%.
Consider `Cc1cc(-c2ccc([C@H](C)N3CC[C@](CCCN4CCCS4(=O)=O)(c4ccccc4)OC3=O)cc2)ccn1` [EXAMPLE 106, (R)-6-(3-(1,1-dioxo-isothiazolidin-2-yl)propyl)-3-((S)-1-(4-(2-methylpyridin-4-yl)phenyl)ethyl)-6-phenyl-1,3-oxazinan-2-one], for which the IC50 was 22.7 nM in assay [1] (setting [6]), < 100 nM in assay [1] (setting [7]) and 9500 nM in assay [3]. Moreover, in assay [1], the inhibition at 0.1 µM came out at 79.6%.
The corresponding values for `C[C@@H](c1ccc(-c2ccc(F)cn2)cc1)N1CC[C@](CCCO)(c2ccccc2)OC1=O` [EXAMPLE 112, (R)-3-((S)-1-(4-(5-fluoropyridin-2-yl)phenyl)ethyl)-6-(3-hydroxpropyl)-6-Phenyl-1,3-oxazinan-2-one] are 0.5 nM, < 100 nM, 6100 nM and 95.2%.
On to `Cc1cc(-c2ccc([C@H](C)N3CC[C@](CCCO)(c4ccccc4)OC3=O)cc2)cc(C)n1` [EXAMPLE 133, (R)-3-((S)-1-(4-(2,6-dimethylpyridin-4-yl)phenyl)ethyl)-6-(3-hydroxypropyl)-6-phenyl-1,3-oxazinan-2-one], for which the IC50 in assay [3] was > 30000 nM.
The same measure, in the same setting: with `Cc1ncc(-c2ccc([C@H](C)N3CC[C@](CCCO)(c4ccc(F)cc4)OC3=O)cc2)cn1` [EXAMPLE 137, (R)-6-(4-fluorophenyl)-6-(3-hydroxypropyl)-3-((S)-1-(4-(2-methylpyrimidin-5-yl)phenyl)ethyl)-1,3-oxazinan-2-one] the figure was 18400 nM.
On to `Cc1nnc(CC[C@]2(c3ccccc3)CCN([C@@H](C)c3ccc(-c4ccc(C#N)cn4)cc3)C(=O)O2)o1` [EXAMPLE 145, 6-(4-((S)-1-((R)-6-(2-(5-methyl-1,3,4-oxadiazol-2-yl)ethyl)-2-oxo-6-phenyl-1,3-oxazinan-3-yl)ethyl)phenyl)nicotinonitrile], for which the IC50 in assay [1] (setting [6]) was 32.8 nM; in assay [1] (setting [7]), < 100 nM; in assay [3], > 30000 nM. Besides, in assay [1], the inhibition at 0.1 µM stood at 72.4%.
With `Cc1nnc(CC[C@]2(c3ccccc3)CCN([C@@H](C)c3ccc(-c4ccc(C#N)cn4)cc3)C(=O)O2)s1` [EXAMPLE 146, 6-(4-((S)-1-((R)-6-(2-(5-methyl-1,3,4-thiadiazol-2-yl)ethyl)-2-oxo-6-phenyl-1,3-oxazinan-3-yl)ethyl)phenyl)nicotinonitrile], the 50% inhibitory concentration (IC50) is 17.4 nM in assay [1] (setting [6]), < 100 nM in assay [1] (setting [7]) and 6100 nM in assay [3]. Besides, in assay [1], the inhibition at 0.1 µM stood at 78.9%.

The record behind these values is patent US8569292B2, “Cyclic inhibitors of 11β-hydroxysteroid dehydrogenase 1” (Vitae Pharmaceuticals, Inc., priority 2008, dated 2013).
